According to US8658668B2, “PI3 kinase/mTOR dual inhibitor” (Eli Lilly and Company, priority 2011, dated 2014):

How the values were obtained:
Assay type in all cases: cell-based
[1] = test system: A204; assay: Cell proliferation assay (CellTiter-Glo), A204; conditions: Homo sapiens, A204, 72 h
Procedure: (§1) Plate cells in a 96-well plate at 2000 cells/well in 100 μL of cell specific medium (for U87MG use DMEM, 10% FBS, 25 mM 4-(2-hydroxyethyl)-1-piperazineethanesulfonic acid (HEPES), 1.0 mM sodium pyruvate, and 0.1 mM Non Essential Amino Acids (ATCC Cat.#30-2002); for HT1080 use Eagle's MEM, 10% FBS (ATCC Cat.#30-2003); for H1975, A2780, SJSA-1 and 786-O use RPMI 1640, 10% FBS (ATCC Cat.#30-2001); for A204 use McCoy's 5A, 10% FBS (ATCC Cat.#30-2007) except in column 1 use medium only as the blank control. Incubate the plates overnight at 37° C. and 5% CO2. On the next day, prepare compound stocks at 1 mM in DMSO and serially dilute in DMSO in a 96-well round bottom polypropylene plate. Assay compounds at 10 concentrations in duplicate, 4 compounds per plate.
(§2) Transfer 4 μL of the DMSO serial dilutions to a 96 well plate and add 196 μL of culture medium to create a 10× stock for dosing. Gently transfer 11 μL of each dosing stock to the corresponding well of the cell plate resulting in a 0.2% DMSO concentration and a 111 μL final volume. […]
(§3) Prepared the CellTiter-Glo reagent (Promega, Cat: G7571) and add 100 µL to each well after the incubation is complete, homogenize the cells by mixing on an orbital shaker for 2 min and then incubate at RT for 10 min to allow the luminescent signal to stabilize. Record the luminescent raw data with a Wallac Victor V plate reader. […]

[2] = test system: HNXF 536 human tumor xenograft cells; assay: Oncotest tumor clonogenic assay, HNXF 536; conditions: colony formation, Head and Neck HNXF 536, squamous epithelium carcinoma, wd, read-out: Absolute IC50
[3] = test system: LXFA 526 human tumor xenograft cells; assay: Oncotest tumor clonogenic assay, LXFA 526; conditions: colony formation, NSCLC LXFA 526, adeno carcinoma, pd, read-out: Absolute IC50
[4] = test system: CXF 280 human tumor xenograft cells; assay: Oncotest tumor clonogenic assay, CXF 280; conditions: colony formation, Colon CXF 280, adeno carcinoma, pd, read-out: Absolute IC50
[5] = test system: LXFA 1584 human tumor xenograft cells; assay: Oncotest tumor clonogenic assay, LXFA 1584; conditions: colony formation, NSCLC LXFA 1584, adeno carcinoma, pd, read-out: Absolute IC50
[6] = test system: GXF 97 human tumor xenograft cells; assay: Oncotest tumor clonogenic assay, GXF 97; conditions: colony formation, Gastric GXF 97, adeno carcinoma, wd, read-out: Absolute IC50
[7] = test system: MAXF 583 human tumor xenograft cells; assay: Oncotest tumor clonogenic assay, MAXF 583; conditions: colony formation, Mammary MAXF 583, ductual adeno carcinoma, md, read-out: Absolute IC50
[8] = test system: BXF 1218 human tumor xenograft cells; assay: Oncotest tumor clonogenic assay, BXF 1218; conditions: colony formation, Bladder BXF 1218, transitional cell carcinoma, read-out: Absolute IC50
[9] = test system: HT-1080; assay: Cell proliferation assay (CellTiter-Glo), HT-1080; conditions: Homo sapiens, HT-1080, 72 h
Procedure: as §1, §2, §3

[10] = test system: S6RP(pS240/242); assay: Phosphorylated S6RP in U87MG cells; conditions: Homo sapiens, U-87 MG, n = 3, read-out: S6RP(pS240/242) Absolute IC50
Procedure: This homogeneous assay format uses immuno-sandwich capture of the phosphorylated analyte and then detection with antibody-coated Alphascreen beads to generate an amplified signal.
Maintain U87MG cells in U87MG growth medium consisting of DMEM (GIBCO 11965-092) supplemented with 10% fetal bovine serum (FBS, GIBCO, 10091-141), 1% nonessential amino acids (GIBCO, 11140-050) and 1% sodium pyruvate (GIBCO, 11360-070). Harvest cells using standard cell culture procedures and then count using Vi-Cell. Plate 100 μL of U87MG cells in growth medium (50,000 cells/well) into Costar #3596 96 well plates and incubate overnight at 37° C., 5% CO2.
Incubate for one h at 37° C., then remove the medium and add 50 μL of 1× SureFire Lysis Buffer (TGR Biosciences SureFire® Kit component) to each well and incubate at room temperature for 10 min with gentle shaking Transfer 6 μL lysate and 10 μL reaction mixture (60 parts reaction buffer/10 parts activation buffer/1 part each of donor and acceptor beads, Perkin Elmer, 6760617R) to a 384 well proxiplate (Perkin Elmer, 6006280) for the p-p70S6 kinase (Thr389) and p-AKT(Ser473) assays. Seal the plate and incubate at RT for 4 h. […] Read the plates on a Perkin Elmer EnVision equipped with a TurboModule using standard AlphaScreen® settings (Ex680 nm and Em520-620 nm). […]

[11] = test system: SXF 1301 human tumor xenograft cells; assay: Oncotest tumor clonogenic assay, SXF 1301; conditions: colony formation, Sarcoma SXF 1301, malignant rhabdomyosarcoma, ud, read-out: Absolute IC50
[12] = test system: MAXF 401 human tumor xenograft cells; assay: Oncotest tumor clonogenic assay, MAXF 401; conditions: MAXF401, colony formation, Mammary MAXF 401, pap. adeno carcinoma, wd, read-out: Absolute IC50
[13] = test system: OVXF 550 human tumor xenograft cells; assay: Oncotest tumor clonogenic assay, OVXF 550; conditions: colony formation, Ovary OVXF 550, carcinoma, read-out: Absolute IC50
[14] = test system: MEXF 1539 human tumor xenograft cells; assay: Oncotest tumor clonogenic assay, MEXF 1539; conditions: colony formation, Melanoma MEXF 1539, amelanotic melanoma, md, read-out: Absolute IC50
[15] = test system: 786-O; assay: Cell proliferation assay (CellTiter-Glo), 786-O; conditions: Homo sapiens, 786-0, 72 h
Procedure: as §1, §2, §3

[16] = test system: PXF 541 human tumor xenograft cells; assay: Oncotest tumor clonogenic assay, PXF 541; conditions: colony formation, Pleuramesothelioma PXF 541, invasive pleuramesothelioma, read-out: Absolute IC50

IC50 [2]: 55 nM | IC50 [3]: 84 nM | IC50 [4]: 7 nM | IC50 [5]: 85 nM | IC50 [6]: 101 nM | IC50 [7]: 88 nM | IC50 [8]: 48 nM | IC50 [9]: 72 nM | IC50 [10]: 19.1 nM | IC50 [11]: > 200 nM | IC50 [12]: 150 nM | IC50 [13]: 28 nM | IC50 [14]: 246 nM | IC50 [15]: 126 nM | IC50 [16]: 56 nM
Structure (SMILES): CO[C@@H](C)Cn1c(=O)n(C)c2cnc3ccc(-c4cncc(C(C)(C)O)c4)cc3c21 [Example 1, 8-[5-(1-Hydroxy-1-methylethyl)pyridin-3-yl]-1-[(2S)-2-methoxypropyl]-3-methyl-1,3-dihydro-2H-imidazo[4,5-c]quinolin-2-one]
IC50 [1]: 97 nM
